From patent US20050004029A1, “Methods and compositions for treating vascular leak using hepatocyte growth factor” (priority 2001, published 2005) come the findings set out here.

Several values for one entry are separate records, joined by “and”; a condition that tells them apart may be missing. Equal entries are not always repeated.

Assay type in all cases: cell-based
Experiment [1] has as its system Human pulmonary artery endothelial cells. The experiment can be described thus: Transendothelial electrical resistance (TER) of human pulmonary artery endothelial cell monolayers. The protocol:
Bovine pulmonary artery endothelial cells were purchased from the American Type Culture Collection (ATCC®, Rockville, Md.) and utilized at passage 19-24. Cells were maintained in Medium 199 (Life Technologies, Rockville, Md.) supplemented with 20% (v/v) colostrum-free bovine serum (CFBS) (Irvine Scientific, Santa Ana, Calif.), 15 μg/ml endothelial cell growth supplement (Upstate Biotechnology, Lake Placid, N.Y.), 1% antibiotic and antimycotic, and 0.1 mM non-essential amino acids (Life Technologies). Human pulmonary artery endothelial cells were purchased from Clonetics (Walkersville, Md.), cultured in EBM-2 complete medium (Clonetics) and utilized at passage 5-10. Human alveolar epithelial cells (A549) were purchased from ATCC® and cultured in the same medium as the bovine endothelial cells, except that the endothelial cell growth supplement was omitted. All cells were maintained at 37° C. in a humidified atmosphere of 5% CO2 and 95% air. Both endothelial cell types grew to contact-inhibited monolayers with the typical cobblestone morphology (Garcia, J. G. N. et al. (1995) J. Cell. Physiol. 163:510-522; Liu, F. et al. (2001) Am. J. Respir. Cell. Mol. Biol. 24:711-719).
Electrical resistance of EC monolayers was measured using electrical cell impedance sensor system (Applied Biophysics Inc., Troy, N.Y.) as described in Garcia, J. G. N. et al. (2000) J. Appl. Physiol. 89:2333-2343. Cells grown on gold microelectrodes (10^−3 cm^2) in polycarbonate wells act as insulating particles, and the resistance across the monolayers (transendothelial electrical resistance, or TER) is measured in real time. As cells adhere on the microelectrode and intercellular cell contacts are formed or in response to agents which increase junctional integrity, the TER increases (Garcia, J. G. N. et al. (2001) J. Clin. Invest. 108:689-711). In contrast, cell retraction, rounding, or loss of adhesion is reflected by decreases in TER (Garcia, J. G. N. et al. (2000) J. Appl. Physiol. 89:2333-2343). These measurements provide a highly sensitive biophysical assay that indicates the state of cell shape, focal adhesion, and endothelial barrier function (Giaever, I. and Keese, C. R. (1993) Nature 366:591-592; Tiruppathi, C. et al. (1992) Proc. Natl. Acad. Sci. USA 89:7919-7923). All electrical resistance data are presented as normalized values. Briefly, current was applied across the electrodes by a 4000 Hz AC voltage source with an amplitude of 1 V in series with a 1 MΩ resistance to approximate a constant current source (−1 μA). The small gold electrode and the larger counter electrode (1 cm^2) were connected to a phase-sensitive lock-in amplifier (5301A; EG&G Instruments Corp, Princeton, N.J.) with a built in differential preamplifier (5316A; EG&G Instruments Corp.). The in-phase and out-of-phase voltages between the electrodes were monitored in real time with the lock-in amplifier and converted to scalar measurements of transendothelial impedance, of which resistance was the primary focus. Transendothelial electrical resistance was monitored for 30 min to establish a baseline resistance (Ro) which, for human lung endothelium, was typically between 8 to 12×10^3 Ω (wells with R0<7×10^3 Ω or R0 >15×10^3 Ω were rejected). For some experiments, total TER was vectorially resolved into components reflecting resistance to current flow beneath the cell layer (α) and resistance to current flow between adjacent cells (Rb) as described in Garcia et al. (2000) supra utilizing the method of Giaiver and Keese which models the endothelial monolayer mathematically (Giaever, I. and Keese, C. R. (1993) Nature 366:591-592). Thus, changes in α reflect alterations in the net state of cell-matrix adhesion, whereas changes in Rb reflect alterations in the integrity of cell-cell adhesion. TER values from each microelectrode were pooled at discrete time points and plotted versus time as the mean±standard error of the mean (Garcia et al. (2000) supra). […]

Experiment [2] concerns human endothelial monolayers. Nature of the experiment: F-actin immunofluorescent microscopy (cortical actin ring). The note with it: HGF 20 ng/ml. The procedure:
(§1) Endothelial cell monolayers grown on gelatinized cover slips were rinsed with M199 and incubated with agonists in the same medium in a 37° C. incubator (5% CO2). Monolayers were then rinsed with PBS (3×2 min), fixed in 4% paraformaldehyde for 10 min, again rinsed with PBS (3×2 min), and permeabilized with 0.25% Triton X-100 for 5 min. Cells were then washed briefly with PBS (3×2 min), blocked with PBS containing 2% BSA for 30 min and incubated with 1 Unit/mL of Texas Red-X phalloidin (Molecular Probes, Eugene, Oreg.), β-catenin antibody (Transduction Laboratories, Lexington, Ky.), glycogen synthase kinase-3 β (GSK-3β) (Santa Cruz Biotechnology, Inc., Santa Cruz, Calif.), or mono-phosphorylated MLC antisera (see Garcia, J. G. N. et al. (2001) J. Clin. Invest. 108:689-711) for 1 hr. After washing with PBS (3×2 min), cover slips were mounted on slides using SlowFade mounting medium (Molecular Probes). Cells were analyzed using a 60× oil objective on a Nikon Eclipse TE 300 microscope. Images were captured by Sony Digital Photo camera DKC 5000. […]
The effect of HGF on the spatial localization of polymerized actin in human endothelial monolayers was investigated by immunofluorescent microscopy. […] F-actin staining was assessed with Texas red phalloidin and myosin light chain staining evaluated with anti-monophosphorylated myosin light chain polyclonal antibody.

Another experiment has as its system human endothelial cells. Nature of the experiment: β-catenin immunofluorescent microscopy. The note with it: HGF-stimulated cells. The protocol: as §1, with “5000. The same exposure time was applied to all samples within one experiment.” for “5000.”
For experiment [3], the system named is Human pulmonary artery endothelial cells. The experiment can be described thus: Transendothelial electrical resistance (TER) of human pulmonary artery endothelial cell monolayers. The note with it: HGF 100 ng/ml; baseline TER ~1600 Ω.

Turning to “HGF: heparin-binding glycoprotein, multifunctional cytokine, ligand of c-Met; purchased from R&D Systems”, in experiment [1] (HGF 100 ng/ml, at peak), the “increase in TER (barrier enhancement)” value is ~50% and > 50%. Also, the “direct effect on TER” value in experiment [1] (HGF 2-100 ng/ml, NK2 1-100 ng/ml) is listed as “increased TER in a dose-dependent manner”. Besides, the “time at which elevation in TER is clearly evident” value in experiment [1] (HGF 2 to 100 ng/ml) fell in the range of 1 to 2 min. In addition, the “further increase in TER above 100 ng/ml” value in experiment [1] (HGF >100 ng/ml) is reported as “No further significant increases in TER”. Further, the “time of peak TER increase” value in experiment [1] (after exposure to 100 ng/ml HGF) lay within 15 to 20 min. In addition, the “TER response to re-stimulation with HGF (10 ng/ml) at 2 hr” value in experiment [1] (pretreatment with HGF at 10 and 100 ng/mL) is reported as “significantly reduced the subsequent HGF responses”; in experiment [1] (prior HGF stimulation at 1 ng/ml), “not altered”. Besides, the “paracellular junction resistance (Rb)” value in experiment [1] (vectorial partitioning of TER after HGF treatment) is recorded as “sharp increases”. The F-actin staining entry in experiment [2] is given as “rapid enhancement of F-actin staining spatially confined to the cortical cytoskeletal ring”. For the same substance, the β-catenin immunoreactivity result in the experiment on human endothelial cells is “increased β-catenin immunoreactivity along cell borders”. In experiment [3], the “peak TER” value is ~2400 Ω.
